Reference: patent US20230242915A1, “SMALL INTERFERING DEOXYRIBONUCLEIC ACID (SIDNA) AGAINST METALLO-BETA LACTAMASE GENE” (priority 2021, published 2023)
{FAM} = 6-FAM fluorescein dye; {TAMRA} = TAMRA dye

Key:
[1] = test system: imipenem-resistant Pseudomonas aeruginosa; test: chronic Pseudomonas aeruginosa lung infection model, lung histology; assay type: in vivo; settings: infected mice, imipenem in combination with siDNA (with chitosan), 3 days of treatment; compared with FIG. 5A mouse
Experimental: In this example, the effect of an exemplary siDNA on an exemplary imipenem-resistant Pseudomonas aeruginosa was assessed in 40 mice with chronic Pseudomonas aeruginosa lung infection. For this purpose, a 1% w/v concentration of chitosan polymer was prepared, followed by preparing two different ratios of chitosan 1% w/v to an exemplary siDNA—in phosphate buffered saline (PBS)—including an exemplary 1:1 ration and an exemplary 0.5:1 ratio.
A chronic Pseudomonas aeruginosa lung infection model (using imipenem-resistant Pseudomonas aeruginosa) was established in 40 mice (25-30 g). Exemplary mice were randomly divided into three groups (each group comprising 10 mice) including: i) an exemplary control group that only received imipenem after acquiring chronic infection, ii) an exemplary first group that received imipenem in combination with an exemplary siDNA (ratio 0.5:1 of chitosan 1% w/v to an exemplary siDNA) after acquiring chronic infection, and iii) an exemplary second group that received imipenem in combination with an exemplary siDNA (ratio 1:1 of chitosan 1% w/v to an exemplary siDNA) after acquiring chronic infection. […] The level of tissue damage in an exemplary control group, first group, and second group was observed and analyzed by light microscopy. […]

blaIMP-1 gene = test: blaIMP-1 mRNA level by real time RT-PCR in Pseudomonas aeruginosa transformed with siDNA; assay type: cell-based; settings: for Fold change of blaIMP-1 mRNA: 2-ΔΔCt, untreated = about 1
Experimental: In this example, the synthesized siDNA in “Example 1” (comprising exemplary sense and antisense strands set forth in SEQ ID NO: 1 and 2, respectively) was cloned into Pseudomonas aeruginosa bacteria harboring an exemplary blaIMP-1 gene (imipenem/meropenem resistance gene). To this end, first, competent Pseudomonas aeruginosa was prepared and stored at −70° C. to be used in further experiments. Competent cells may refer to microbial cells capable of taking up foreign nucleic acid molecules from their surroundings through a process known as transformation. In order to transfer/clone the prepared siDNA into the competent Pseudomonas aeruginosa bacteria, 100 μL of an exemplary siDNA (either being coated with chitosan polymer or being bare—i.e., being uncoated) with a concentration of about 1% w/v was added to 60 μL of the competent Pseudomonas aeruginosa culture in Lysogeny Broth (LB) medium, gently mixed, and kept at 0° C. for 45 min. Then, the mixture of an exemplary siDNA (either being bare or coated with chitosan polymer) with the culture of competent Pseudomonas aeruginosa was incubated at 37° C., for 20 sec, and immediately placed on ice. Then, 800 μL of Super Optimal broth (SOC) medium was added to the mixture of an exemplary siDNA (either being bare or coated with chitosan polymer) with the culture of competent Pseudomonas aeruginosa and incubated at 37° C., in a shaker incubator, for 24-30 h.
In this example, the effect of an exemplary siDNA—which was cloned into Pseudomonas aeruginosa bacteria in “Example 2”—on the expression of an exemplary blaIMP-1 gene was evaluated. In other words, the level of blaIMP-1 mRNA (messenger RNA) was measured in the transformed Pseudomonas aeruginosa bacteria with an exemplary siDNA in “Example 2”. For this purpose, the total RNA of an exemplary transformed Pseudomonas aeruginosa and an exemplary untreated Pseudomonas aeruginosa (as negative control) was extracted using a commercial RNA extraction kit, followed by conducting a real time RT-PCR (reverse transcriptase polymerase chain reaction) to determine the level of blaIMP-1 mRNA. In this example, 2-ΔΔCt method was used to determine differences in normalized expression of an exemplary blaIMP-1 gene (at transcription level) induced by an exemplary siDNA. FIG. 2 illustrates RNA expression profile 200 in an exemplary transformed Pseudomonas aeruginosa with an exemplary siDNA (measured by real time RT-PCR), consistent with one or more exemplary embodiments of the present disclosure. As shown in RNA expression profile 200, Group A refers to an exemplary transformed Pseudomonas aeruginosa bacteria grown for 4 h in the presence of imipenem, Group B refers to an exemplary transformed Pseudomonas aeruginosa bacteria grown for 18 h in the presence of imipenem, and Group C refers to an exemplary transformed Pseudomonas aeruginosa bacteria grown for 36 h in the presence of imipenem. […] Fold change of an exemplary blaIMP-1 mRNA in untreated Pseudomonas aeruginosa, Group A, Group B, and Group C—shown in RNA expression profile 200—were about 1, 0.088, 0.020, and 0.27, respectively.

[2] = test system: Pseudomonas aeruginosa harboring blaIMP-1 gene; test: imipenem MIC assay (broth dilution) on transformed Pseudomonas aeruginosa; assay type: cell-based
Experimental: In this example, the synthesized siDNA in “Example 1” (comprising exemplary sense and antisense strands set forth in SEQ ID NO: 1 and 2, respectively) was cloned into Pseudomonas aeruginosa bacteria harboring an exemplary blaIMP-1 gene (imipenem/meropenem resistance gene). To this end, first, competent Pseudomonas aeruginosa was prepared and stored at −70° C. to be used in further experiments. Competent cells may refer to microbial cells capable of taking up foreign nucleic acid molecules from their surroundings through a process known as transformation. In order to transfer/clone the prepared siDNA into the competent Pseudomonas aeruginosa bacteria, 100 μL of an exemplary siDNA (either being coated with chitosan polymer or being bare—i.e., being uncoated) with a concentration of about 1% w/v was added to 60 μL of the competent Pseudomonas aeruginosa culture in Lysogeny Broth (LB) medium, gently mixed, and kept at 0° C. for 45 min. Then, the mixture of an exemplary siDNA (either being bare or coated with chitosan polymer) with the culture of competent Pseudomonas aeruginosa was incubated at 37° C., for 20 sec, and immediately placed on ice. […]
On the other hand, to further confirm success of an exemplary siDNA in silencing an exemplary blaIMP-1 gene in Pseudomonas aeruginosa, minimum inhibitory concentration (MIC) of imipenem was determined in an exemplary transformed Pseudomonas aeruginosa. To this end, MICs of imipenem that may inhibit the growth of an exemplary transformed Pseudomonas aeruginosa (with an exemplary siDNA) was determined after 1-4 h, 2-18 h, and 3-36 h, by broth dilution method performed in a 96-well microtiter plate. […]
To conduct an exemplary MIC assay, bacterial culture grown to log phase was adjusted to about 5×10^5 (cells/mL) in Muller-Hinton broth. Then, the antimicrobial effect of imipenem on an exemplary transformed Pseudomonas aeruginosa and an exemplary untreated Pseudomonas aeruginosa was determined by measuring turbidity of bacterial growth in each well, using a microtiter plate reader. […]

For “siDNA: Annealed duplex of sense strand SEQ ID NO: 1 and antisense strand SEQ ID NO: 2, each 5′ 6-FAM and 3′ TAMARA, targeting blaIMP-1 gene (sense GCCGACATCGCCTTCGGCGTTTATGATT; antisense AACGCGAGAAAGTATGAACCTAGCACTT; DNA, 5' {FAM}, 3' {TAMRA}, backbone and methylation of C not given here)”, the “edema and tissue damage in lung tissue (hematoxylin and eosin histology)” value [1] was “significantly less edema and tissue damage”, the “decrease of gene expression compared to untreated Pseudomonas aeruginosa” value (shortened to “decrease of gene expression”) (blaIMP-1 gene; Group A, 4 h in the presence of imipenem) was 11.36 folds and the “Fold change of blaIMP-1 mRNA” value (blaIMP-1 gene; Group A: transformed bacteria grown 4 h in the presence of imipenem) was about 0.088. The “decrease of gene expression” value (blaIMP-1 gene; Group B, 18 h in the presence of imipenem) was 50 folds, the “Fold change of blaIMP-1 mRNA” value (blaIMP-1 gene; Group B: transformed bacteria grown 18 h in the presence of imipenem) was about 0.020 and the “decrease of gene expression” value (blaIMP-1 gene; Group C, 36 h in the presence of imipenem) was 3.7 folds. For the same substance, the “Fold change of blaIMP-1 mRNA” value (blaIMP-1 gene; Group C: transformed bacteria grown 36 h in the presence of imipenem) was about 0.27, the “MIC of imipenem in siDNA-transformed Pseudomonas aeruginosa” value (shortened to “MIC of imipenem”) ([2]; Group A, 4 h, Muller-Hinton broth) was 2 µg/mL and the “MIC of imipenem” value ([2]; Group B, 18 h, Muller-Hinton broth) was 4 µg/mL. The “MIC of imipenem” value ([2]; Group C, 36 h, similar to untreated negative control) was 32 µg/mL.
